From patent US20220280644A1, “"TRPswitch" - A STEP FUNCTION CHEMO-OPTOGENETIC LIGAND” (UNIVERSITY OF UTAH RESEARCH FOUNDATION, priority 2019, published 2022)

How the values were obtained:
endogenous human TRPA1 = target: T1, endogenous human TRPA1 (Homo sapiens, UniProt O75762); experiment: Whole cell current in untransfected CCD-18Co cells; type: cell-based; conditions: untransfected CCD-18Co
T1 construct: human colonic fibroblast cells, CCD-18Co, which express human TRPA1 endogenously; endogenous in cells; host or cells: CCD-18Co (ATCC), untransfected
T1 sequence (O75762 whole entry): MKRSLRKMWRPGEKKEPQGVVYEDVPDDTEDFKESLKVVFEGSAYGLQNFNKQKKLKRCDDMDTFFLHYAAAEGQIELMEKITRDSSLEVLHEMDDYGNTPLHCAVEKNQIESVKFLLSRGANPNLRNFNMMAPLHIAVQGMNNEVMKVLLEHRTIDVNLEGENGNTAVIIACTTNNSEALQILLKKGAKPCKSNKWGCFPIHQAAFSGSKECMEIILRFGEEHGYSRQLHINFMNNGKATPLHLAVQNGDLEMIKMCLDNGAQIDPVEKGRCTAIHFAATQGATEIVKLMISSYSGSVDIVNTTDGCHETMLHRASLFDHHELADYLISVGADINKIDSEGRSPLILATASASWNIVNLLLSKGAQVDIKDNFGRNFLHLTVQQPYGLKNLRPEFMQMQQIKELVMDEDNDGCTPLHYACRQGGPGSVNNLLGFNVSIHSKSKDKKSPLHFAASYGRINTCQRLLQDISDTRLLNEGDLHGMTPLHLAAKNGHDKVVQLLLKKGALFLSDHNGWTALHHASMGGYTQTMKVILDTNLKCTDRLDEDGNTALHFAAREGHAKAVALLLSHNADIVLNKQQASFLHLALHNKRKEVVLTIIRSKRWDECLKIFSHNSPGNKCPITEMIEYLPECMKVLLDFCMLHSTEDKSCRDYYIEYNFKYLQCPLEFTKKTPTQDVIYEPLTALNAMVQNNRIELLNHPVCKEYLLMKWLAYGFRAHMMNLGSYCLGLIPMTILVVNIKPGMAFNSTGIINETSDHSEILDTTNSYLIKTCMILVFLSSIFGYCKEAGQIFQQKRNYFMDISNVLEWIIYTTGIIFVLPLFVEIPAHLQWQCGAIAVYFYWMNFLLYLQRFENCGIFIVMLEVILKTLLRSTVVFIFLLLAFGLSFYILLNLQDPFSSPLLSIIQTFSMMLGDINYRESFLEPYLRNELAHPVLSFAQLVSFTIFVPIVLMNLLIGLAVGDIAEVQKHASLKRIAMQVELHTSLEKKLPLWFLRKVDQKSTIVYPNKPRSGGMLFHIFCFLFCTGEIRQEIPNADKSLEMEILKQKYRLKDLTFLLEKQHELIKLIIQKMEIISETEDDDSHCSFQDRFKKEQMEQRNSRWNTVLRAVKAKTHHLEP
Protocol: Immortalized HEK293T cells or human colonic fibroblast cells (CCD-18Co; ATCC) were used. HEK293T cells were plated on […] cover slips and transiently transfected with 10 μg of Trpa1b plasmid (pCMV-zTrpa1b-FLAG) (SEQ ID NO:3) and 5 μg of mNeonGreen cDNA (Allele Biotechnology), then grown in a 6 cm plate for 24-48 h. CCD-18Co were cultured in Eagle's minimal essential medium with 10% FBS, 1× penicillin and streptomycin. CCD-18Co cells were plated on 12 mm cover slips and transiently transfected with 5 μg of zTrpa1b plasmid (pCMV-zTrpa1b-FLAG) together with 5 μg of mNeonGreen cDNA (Allele Biotechnology), then grown in a […] plate for 48-72 h. After this time, the cover slips were transferred to a recording chamber containing an extracellular solution composed of 145 mM sodium gluconate, 4 mM KCl, 3 mM MgCl2, 10 mM D-glucose, 10 mM HEPES; pH 7.4 adjusted with NaOH. The internal solution contained 122 mM cesium methane sulfonate, 1.8 mM MgCl2, 9 mM EGTA, 14 mM creatine phosphate (sodium salt), 4 mM Mg-ATP, 0.3 mM Na-GTP, 10 mM HEPES, pH 7.2 adjusted with CsOH. […] Whole cell currents were measured on an Axopatch 200B amplifier (Molecular De-vices) under the control of pClamp software. […] Basal Trpa1b whole cell currents were measured with a ramp protocol (˜100 to +100 mV, at a holding potential of 0 mV). […] The p values were calculated using a two-tailed, paired Student's t-test.

zebrafish Trpa1b = experiment: Whole-cell patch-clamp of HEK293T cells expressing zebrafish Trpa1b; type: cell-based
Protocol: Immortalized HEK293T cells or human colonic fibroblast cells (CCD-18Co; ATCC) were used. HEK293T cells were plated on […] cover slips and transiently transfected with 10 μg of Trpa1b plasmid (pCMV-zTrpa1b-FLAG) (SEQ ID NO:3) and 5 μg of mNeonGreen cDNA (Allele Biotechnology), then grown in a 6 cm plate for 24-48 h. CCD-18Co were cultured in Eagle's minimal essential medium with 10% FBS, 1× penicillin and streptomycin. CCD-18Co cells were plated on 12 mm cover slips and transiently transfected with 5 μg of zTrpa1b plasmid (pCMV-zTrpa1b-FLAG) together with 5 μg of mNeonGreen cDNA (Allele Biotechnology), then grown in a […] plate for 48-72 h. After this time, the cover slips were transferred to a recording chamber containing an extracellular solution composed of 145 mM sodium gluconate, 4 mM KCl, 3 mM MgCl2, 10 mM D-glucose, 10 mM HEPES; pH 7.4 adjusted with NaOH. The internal solution contained 122 mM cesium methane sulfonate, 1.8 mM MgCl2, 9 mM EGTA, 14 mM creatine phosphate (sodium salt), 4 mM Mg-ATP, 0.3 mM Na-GTP, 10 mM HEPES, pH 7.2 adjusted with CsOH. Borosilicate glass pipettes with a resistance of 3-5 MO were used. Whole cell currents were measured on an Axopatch 200B amplifier (Molecular De-vices) under the control of pClamp software. Signals were digitized through a Digidata1550B interface (Molecular Devices). Currents were filtered at 5 kHz (lowpass, Bessel) and sampled at 10 kHz prior to analysis with Clampfit software (Molecular Devices). All the plots and statistical tests were performed on Excel (Microsoft corp.). Basal Trpa1b whole cell currents were measured with a ramp protocol (˜100 to +100 mV, at a holding potential of 0 mV). Photoactive compounds were perfused into the recording chamber and a fluorescent light generated by mercury vapor short arc (U-HGLGPS, OLYMPUS) filtered through an ET-ECFP 434/17 nm filter and through a ET-mCherry 560 nm filter (Chroma Technology) was switched “on” and “off” for 10 s. All experiments were performed at room temperature. The p values were calculated using a two-tailed, paired Student's t-test.

[1] = Photostationary state (PSS) determination; type: physicochemical; conditions: for 365 nm PSS / 420 nm PSS / 495 nm PSS: estimated, UV/Vis spectroscopy in DMSO
Description: […] In the latter case, the pure Z isomer spectrum was estimated using methods described in previous publications.

Trpa1b = experiment: Heartbeat interruption in larvae expressing Trpa1b in cardiomyocytes; type: in vivo, zebrafish; conditions: 20 μM
Protocol: Heartbeat interruption experiments were performed in vivo on 2 dpf Tg(cm/c2:Trpa1b-2A-EGFP) larvae in a Trpa1b^−/− background. Larvae were pretreated with 20 μM of TRPswitch-A or TRPswitch-B in E3 at a final concentration of 1% DMSO for 1 h in the dark at 28.5° C. before experimental manipulation. Immediately prior to the onset of experiments, E3 solution was replaced with 0.2 mg/mL tricaine (Sigma, A5040) in E3 for anesthetizing the larvae. Violet light (352-402 nm) and green light (500-600 nm) were used for E to Z and Z to E isomerization, respectively. Violet and green light excitation were achieved using a band pass filter FF01-377/50 and an et500lp long pass barrier filter, respectively, together with a t600plxxr dichroic mirror and a 300-Watt xenon bulb light source (Sutter Instrument). Experiments were performed using a NA 0.6 40× air objective at room temperature. The zebrafish heart in the whole field of view was illuminated with 1 s violet light followed by various lengths of green light as indicated. Ventricle width measurement was performed using the ImageJ ‘measure’ function on the widest outer ventricle width every 100 ms.

[2] = tested on: wild-type zebrafish larvae; experiment: Behavioral assay: light-induced motion response of wild-type larvae; type: in vivo, Zebrafish (Danio rerio); conditions: for light-induced motion response (in vivo activity): 3 dpf wild-type larvae, 1 s flashes WL1-WL4
Protocol: A total of 1,000 compounds were selected from the ChemBridge Corp. catalog. Compounds were dissolved in DMSO at a stock concentration of 1 μg/μL (˜1.5 mM). The library was screened at a 1:100 dilution in E3 solution for a final concentration of ˜15 μM. Negative controls were treated with an equal volume of DMSO. Groups of 3 larvae at 3 days post fertilization (dpf) were distributed into the wells of 96-well clear bottom black microplates (07-200-567; Fisher Scientific) in 150 μL E3 before the addition of small molecules. Stock solutions of compounds were added directly to zebrafish in the wells of a 96 well plate (Corning 3631), mixed, and allowed to incubate for 1 h in the dark at 28.5° C. prior to behavioral evaluation in the behavioral assay. Ordering information: 1 (5533696; ChemBridge); 3 (5538408; ChemBridge).
Larvae in each of the wells were exposed to four 1 second flashes of light stimulus in the following order: 450-500 nm (WL1), 415-455 nm (WL2), 352-402 nm (WL3), white light (WL4), with a 5 second inter-stimulus interval. Digital video recording was performed for 5 seconds before the first light stimuli and continued throughout the stimulation sequence. Band pass filters (Semrock FF02-475/50, FF02-435/40, FF01-377/50) were used to restrict the excitation light to the indicated wavelengths. […] 290 frames of digital video were recorded per well at 10 FPS using an EMCCD camera (C9100; Hamamatsu) mounted on an inverted compound microscope (AxioObserver A1; Zeiss) with a NA 0.03 1.25× objective and a barrier with a 0.7 mm diameter opening to restrict light scattering to the sample. MetaMorph software (Molecular Devices) was used to control the execution of TTL signals and camera capture using the built-in stream acquisition with trigger function. Each video was saved for review. Light stimuli were generated with an ozone free 300-Watt xenon bulb housed in a Lambda LS illuminator (Sutter Instruments). A dichroic mirror (T510LPXRXT; Chroma) was used for appropriate excitation of samples and bright field acquisition. Schott longpass absorption glass (RG610; Chroma) was added in the transmitted light path to reduce unwanted excitation to the well and to provide sufficient light for video recording. All behavioral experiments were conducted at room temperature. […]
To analyze digital video recordings, custom MetaMorph software scripts were used to automatically threshold the video to identify the area of larvae in each frame. Threshold images of the frames after each light activation event were overlaid to calculate a new combined threshold area. The motion index was calculated as the percentage change between the threshold area in the frame right before light activation and the new combined threshold area. This motion index correlates with the overall amount of motion in the well.

[3] = UV-Vis absorbance, E/Z isomerization with violet and green light; type: physicochemical; conditions: UV-Vis absorbance in DMSO
Protocol: Compounds were dissolved in DMSO at 250 μM and 260 μM for TRPswitch-A and TRPswitch-B, respectively and UV-Vis absorbance was measured using a NanoDrop 1000 (Thermo Scientific).

[4] = Aqueous solubility observation; type: physicochemical
[5] = Z→E thermal isomerisation kinetics; type: physicochemical
Protocol: In order to determine the Z→E thermal isomerisation kinetics in DMSO-d6 a ˜20 mM solution of the relevant compound was irradiated using a Luzchem LZC-4V photoreactor fitted with 12×8 W LZC-420 lamps (420 nm peak emission) until no further change was observable by ^1H NMR. For 30% water:DMSO samples, a 15 μM solution of the relevant compound was irradiated in a quartz cuvette using 365 nm LEDs (3×800 mW Nichia NCSU276A) until no further change was observed by UV-Vis spectroscopy. Compounds (˜25 μM solutions in DMSO) were treated analogously. In the case of compounds studied by NMR, the change in Z-isomer percentage was followed as a function of time through integration of the relevant peaks. […]
For data collected via ^1H NMR, the natural log of the Z isomer concentration was plotted against time to yield a straight line implying first order kinetics. The gradient of this line was used to determine the rate constant for Z→E conversion from which the thermal half-life could be calculated:
For data collected via UV-Vis Spectroscopy, absorbance data at a fixed wavelength was fitted using the following, first order equation: […]
where k represents the rate constant; A∞, A0 and At are the absorbances of the pure E-state, Z-rich state, and time t, respectively. […]

[6] = UV-Vis spectroscopy in 30% water:DMSO, extrapolated pure Z spectrum, listed as TRPswitch-A

SMILES | 365 nm PSS [1] [% E] | 420 nm PSS [1] [% E] | 495 nm PSS [1] [% E] | light-induced motion response (in vivo activity) [2] | other results
C=CCN=C=S [AITC, allyl isothiocyanate, reference compound] |  |  |  |  | response of human TRPA1 current (endogenous human TRPA1): responded; agonist-activated Trpa1b currents (zebrafish Trpa1b; positive control): activated currents
O=C(Nc1ccc(/N=N/c2ccccc2)c(NC(=O)c2ccco2)c1)c1ccco1 [Compound 1, (E)-N,N′-(4-(phenyldiazenyl)-1,3-phenylene)bis(furan-2-carboxamide)] |  |  |  | light-induced motion response across multiple wavelengths | 365 nm PSS (E-Z) ([1]; 1H NMR in DMSO-d6): 79% Z; 420 nm PSS (E-Z) ([1]; 1H NMR in DMSO-d6): 53% Z; 495 nm PSS (Z-E) ([1]; 1H NMR in DMSO-d6): 71% E; Estimated 365 nm PSS (E-Z) [1, 6]: 86% Z; Estimated 495 nm PSS (Z-E) [1, 6]: 73% E; Trpa1b current upon violet light stimulation (zebrafish Trpa1b; 10 μM, compared to baseline): high amplitude currents; Trpa1b photocurrent upon subsequent green light stimulation (zebrafish Trpa1b; 10 μM, same cell): recovered to its baseline current magnitude; current density fold increment after subsequent pulse of green light (zebrafish Trpa1b; +100 mV): 1.15±0.17 fold; current density fold increment upon violet light illumination (zebrafish Trpa1b; +100 mV): 2.36±0.50 fold; current density fold increment after subsequent pulse of green light (zebrafish Trpa1b; −100 mV): 3.71±1.31 fold; current density fold increment upon violet light illumination (zebrafish Trpa1b; −100 mV): 4.35±1.44 fold; ventricle heartbeat after 1 s violet light (Trpa1b; 1 h pre-incubation): could be stopped; ventricular rhythm after 1 s green light (Trpa1b; after violet light): re-stored; bandwidth with the most activity ([2]; light-induced motion response): 415-455 nm; E/Z photoswitching with violet and green light [3]: incomplete
O=C(Nc1ccccc1/N=N/c1ccccc1)c1ccco1 [Compound 2, (E)-N-(2-(phenyldiazenyl)phenyl)furan-2-carboxamide] | 13 | 56 | 79 | reduced activity | 
O=C(Nc1ccc(/N=N/c2ccccc2)c(NC(=O)c2cccs2)c1)c1cccs1 [Compound 3, (E)-N,N′-(4-(phenyldiazenyl)-1,3-phenylene)bis(thiophene-2-carboxamide)] | 22 | 38 | 76 | slightly lower photoresponse | 
N#Cc1ccc(/N=N/c2ccc(NC(=O)c3ccco3)cc2NC(=O)c2ccco2)cc1 [Compound 4, (E)-N,N′-(4-((4-cyanophenyl)diazenyl)-1,3-phenylene)bis(furan-2-carboxamide)] | 47 | 32 | 61 | far less active | 
Cc1nn(C)c(C)c1/N=N/c1ccc(NC(=O)c2ccco2)cc1NC(=O)c1ccco1 [Compound 8, (E)-N,N′-(4-((1,3,5-trimethyl-1H-pyrazol-4-yl)diazenyl)-1,3-phenylene)bis(furan-2-carboxamide)] |  |  |  |  | aqueous solubility [4]: some aqueous solubility issues; thermal half-lives [5]: long thermal half-lives; E/Z photoswitching with violet and green light [3]: quantitative photoswitching in both directions

The next lines start with results.

365 nm PSS [1] [% E] | 420 nm PSS [1] [% E] | 495 nm PSS [1] [% E] | SMILES | light-induced motion response (in vivo activity) [2] | other results
41 | 30 | 61 | N#Cc1ccc(/N=N/c2ccc(NC(=O)c3cccs3)cc2NC(=O)c2cccs2)cc1 [Compound 5, (E)-N,N′-(4-((4-cyanophenyl)diazenyl)-1,3-phenylene)bis(thiophene-2-carboxamide)] | far less active | 
66 | 42 | 64 | O=C(Nc1ccc(/N=N/c2ccc([N+](=O)[O-])cc2)c(NC(=O)c2ccco2)c1)c1ccco1 [Compound 6, (E)-N,N′-(4-((4-nitrophenyl)diazenyl)-1,3-phenylene)bis(furan-2-carboxamide)] | far less active | 
69 | 46 | 70 | O=C(Nc1ccc(/N=N/c2ccc([N+](=O)[O-])cc2)c(NC(=O)c2cccs2)c1)c1cccs1 [Compound 7, (E)-N,N′-(4-((4-nitrophenyl)diazenyl)-1,3-phenylene)bis(thiophene-2-carboxamide)] | far less active | 
